Entries after “also recorded” stand apart in the source; their conditions may differ.

Series [1] has as its target T1, HIV-1 Nucleocapsid Protein (NCp7) (Human immunodeficiency virus type 1 group M subtype B, UniProt P12493).
T1 construct: The NCp7 protein containing 2 Zn-fingers and 2 Zn ions
Description: Fluorescence-based (TSQ) assay of zinc ejection from purified HIV-1 NCp7. Particulars: 10 μM compound, 2.8 μM NCp7, 47 μM TSQ, pH 7.4, 26° C., 90 minutes. It is filed as biochemical. The source says:
The compounds of the present invention cause the extrusion of zinc from the nucleocapsid protein (NCp7) of HIV-1. The NC protein is highly conserved among all retroviruses (South T., Blake P., et al., Biochemistry, 1990;;29:7786) and is essential for viral infectivity (Aldovini A. and Young R., J. Virology, 1990;64:1920 and Gorelick R., Nigida S., et al., J. Virology, 1990;64:3207). The zinc is normally held in NC proteins by 1 or 2 zinc fingers. In the case of HIV-1, 2 zinc fingers are present (Summers M., South T., et al., Biochemistry, 1990;29:329) and are involved specifically with the PSI site on viral RNA which controls the packaging of viral RNA. Interference of this packaging causes the formation of non-infectious virions (Dannull J., Surovoy A., et al., EMBO, 1994;13:1525). It has previously been shown that compounds that cause zinc extrusion have potent anti-HIV activity in multiple cell lines and against all retroviruses (Rice W., Schaeffer C., et al., Nature, 1993;361:473).
A fluorescence-based assay has been developed to monitor the ejection of zinc from purified HIV-1 NCp7. The fluorophore, N-(6-methoxy-8-quinolyl)-p-toluenesulfonamide (TSQ), has an increased fluorescent signal upon bonding zinc ion in solution. The NCp7 protein containing 2 Zn-fingers and 2 Zn ions is incubated with drug causing the extrusion of Zn ions. The released Zn is then sequestered by the TSQ and the increased fluorescence monitored relative to control. The assay was performed as follows: 10 μM compound was added to 2.8 μM NCp7 and 47 μM TSQ in 20 μL of pH 7.4 buffer at 26° C. for 90 minutes. Fluorescence (excitation 355 nm emission 400 nm) was monitored versus time. Controls were the NCp7 under assay conditions without drug, and apo NCp7 (no Zn) with drug. The % Zn extrusion was calculated based on the actual fluorescence measured divided by the fluorescence of all theoretical Zn extruded (5.6 μM)×100.
Table 1 below presents the results of testing several of the invention compounds in zinc extrusion assay described above. The compounds were evaluated for their ability to cause the extrusion of zinc from nucleocapsid protein NCp7 (expressed as % relative to control).

Series [2] addresses T2, rabbit reticulocyte 15-LO (Oryctolagus cuniculus, UniProt P12530).
T2 construct: rabbit reticulocyte 15-LO; from tissue; host or cells: rabbit reticulocytes
T2 sequence (P12530 1-663): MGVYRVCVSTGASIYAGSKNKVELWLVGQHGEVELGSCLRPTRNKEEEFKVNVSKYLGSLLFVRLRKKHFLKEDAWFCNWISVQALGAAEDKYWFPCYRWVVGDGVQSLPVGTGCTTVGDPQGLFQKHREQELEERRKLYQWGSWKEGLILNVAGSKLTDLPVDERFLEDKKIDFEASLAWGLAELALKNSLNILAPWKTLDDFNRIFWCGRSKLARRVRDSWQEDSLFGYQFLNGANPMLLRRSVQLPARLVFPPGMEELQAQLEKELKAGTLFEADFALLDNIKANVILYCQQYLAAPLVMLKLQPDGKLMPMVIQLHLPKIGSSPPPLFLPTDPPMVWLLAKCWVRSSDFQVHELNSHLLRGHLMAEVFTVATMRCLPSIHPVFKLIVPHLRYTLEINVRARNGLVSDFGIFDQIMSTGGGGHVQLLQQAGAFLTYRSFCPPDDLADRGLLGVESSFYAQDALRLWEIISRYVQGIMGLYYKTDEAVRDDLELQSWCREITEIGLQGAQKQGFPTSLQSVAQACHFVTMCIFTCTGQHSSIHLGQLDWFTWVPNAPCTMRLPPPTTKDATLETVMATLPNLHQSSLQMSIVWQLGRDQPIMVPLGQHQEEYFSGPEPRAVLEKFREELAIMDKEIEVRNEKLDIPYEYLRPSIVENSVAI
As to the kind of experiment: Colorimetric Assay of 15-LO Inhibition. To be noted: colorimetric method. Type of series: biochemical. As to the method: The isothiazolones of Formula I are also effective for treating inflammation and atherosclerosis. A characteristic feature of atherosclerosis is the accumulation of cholesteryl ester engorged from foam cells. Foam cells are derived from circulating monocytes which invade artery walls in response to hypercholesterolemia, and mature into tissue macrophages. […] Specifically, representative compounds were evaluated by the methods described by Auerbach, et al., Analytical Biochemistry, 1992;201:375-380. Two in vitro assays were utilized, both utilizing rabbit reticulocyte 15-LO, and linoleic acid as substrate, to enzymatically produce a peroxide oxidation product known as 13(S)-HPODE. N-Benzoyl leucomethylene blue was utilized as a colorimetric reagent for detection and quantification of the peroxide formation. Also, HPLC was utilized to quantify the oxidation following incubation at 4° C. for 10 minutes.
Table 3 gives the concentration of compound required to inhibit 50% of the activity of 15-LO (IC50) when measured by the HPLC method of Auerbach, et al. Table 4 gives the percent inhibition of 15-LO activity when evaluated by the colorimetric method.

The target of a further series is T3, NCp7 (Human immunodeficiency virus type 1 (NEW YORK-5 ISOLATE), UniProt P12493).
T3 construct: same protein as the TSQ zinc-ejection assay
As to the kind of experiment: Electrospray ionization mass spectral analysis of NCp7 with compound. Type of series: binding, HIV-1. To be noted: 40 μM NCp7, ammonium acetate buffer pH 6, 320 μM compound, 3 minutes. As to the method: Electrospray ionization mass spectral analysis was also performed. Using 40 μM NCp7 in ammonium acetate buffer at pH 6, 320 μM 4-(3-oxo-3h-benzo[d]isothiazol-2-yl)benzenesulfonamide (Example 1) in acetonitrile was added. […] In addition, a peak at 6740 corresponding to the NCp7+308+Zn appeared.

The nature of series [3]: CEM cell assay, toxicity (growth inhibition). Type of series: cell-based. Particulars: human, cem cells; Toxic concentration which inhibits the growth of cells 50% relative to control; read-out: CEM Cell Assay TC50. As to the method:
T4 lymphocytes (CEM cell line) are exposed to HIV at a virus to cell ratio approximately 0.05, and plated along with noninfected control cells in 96-well microliter plates. Candidate agent is dissolved in dimethyl sulfoxide (unless otherwise noted), then diluted 1:200 in cell culture medium. Further dilutions (half-log10) are prepared before adding to an equal volume of medium containing either infected or noninfected cells. Cultures are incubated at 37° in a 5% carbon dioxide atmosphere for 6 or 7 days. The tetrazolium salt, XTT, is added to all wells, and cultures are incubated to allow formazan color development by viable cells J. National Cancer Institute, 1989;81:577-586. Individual wells are analyzed spectrophotometrically to quantitate formazan production, and in addition are viewed microscopically for detection of viable cells confirmation of protective activity. Drug-tested virus-infected cells are compared with drug-treated noninfected cells and with other appropriate controls (untreated infected and untreated noninfected cells, drug-contain wells without cells, etc.) on the same plate. Data are reviewed in comparison with other tests done at the same time and a determination about activity is made.

For the compound `NS(=O)(=O)c1ccc(-n2sc3ccccc3c2=O)cc1` [Example 1, 4-(3-Oxo-3h-benzo[d]isothiazol-2-yl)-benzenesulfonamide], the “% Zn Extrusion Relative to Control” value in series [1] is 100%. In addition, 10 µM produced 35% inhibition in series [2]. On NCp7, the “Zinc extrusion and covalent adduct formation by electrospray mass spectrometry” value was “a mass peak at 6360 (100%) corresponding to apo NCp7 (loss of 2 Zn) appeared; also recorded: the extrusion of zinc and the formation of a covalent bond between the cysteine of the zinc finger and the isothiazolone”. For the same compound, the CC50 in series [3] was found to be 21 µM.

(Values after US5620997A, “Isothiazolones” (Warner-Lambert Company, priority 1995, dated 1997).)
